US20260062443A1 (ALEXION PHARMACEUTICALS, INC., priority 2022, published 2026)

The compounds below were run against T1, Human complement C1s enzyme (Homo sapiens, UniProt P09871) (assay: Human C1s enzyme assay). Conditions: human complement C1s enzyme 1.16 nM, substrate Z-L-Lys-SBzl 100 μM, 5 min preincubation; read-out: IC50 (Stars), C1s Inhibiting Activity.
T1 sequence (P09871 438-688 limits assumed): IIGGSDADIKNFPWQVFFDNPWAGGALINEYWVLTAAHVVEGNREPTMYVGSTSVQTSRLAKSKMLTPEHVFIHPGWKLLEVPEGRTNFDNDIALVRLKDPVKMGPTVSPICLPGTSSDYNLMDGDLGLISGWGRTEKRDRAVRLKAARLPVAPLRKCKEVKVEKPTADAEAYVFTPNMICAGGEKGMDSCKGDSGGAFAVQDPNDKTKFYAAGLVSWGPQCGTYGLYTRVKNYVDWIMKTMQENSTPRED
T1 sequence (P09871 16-437 partner limits assumed): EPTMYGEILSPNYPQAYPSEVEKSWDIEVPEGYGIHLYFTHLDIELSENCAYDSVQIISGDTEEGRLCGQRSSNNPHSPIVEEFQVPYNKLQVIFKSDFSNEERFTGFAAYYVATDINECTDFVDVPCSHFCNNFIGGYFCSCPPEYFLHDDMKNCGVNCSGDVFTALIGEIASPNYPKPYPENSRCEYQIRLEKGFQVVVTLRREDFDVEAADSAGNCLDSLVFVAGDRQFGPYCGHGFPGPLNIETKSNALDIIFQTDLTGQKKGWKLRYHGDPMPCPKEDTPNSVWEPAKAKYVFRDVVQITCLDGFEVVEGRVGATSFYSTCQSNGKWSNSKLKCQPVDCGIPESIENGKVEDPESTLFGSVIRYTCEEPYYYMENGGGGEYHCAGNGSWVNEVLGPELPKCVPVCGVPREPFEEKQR
Format: biochemical
Summary of the method: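 IC50 from nonlinear regression of reaction rates versus compound concentration, with rates taken from A405 recorded at 30 s intervals over 30 min after adding 100 μM Z-L-Lys-SBzl plus 100 μM DTNB. Enzyme was human C1s purified from serum, 1.16 nM, given 5 min compound preincubation at room temperature, pH 7.5 Tris/1 M NaCl.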

| IC50 [µM] | Structure (SMILES) |
| --- | --- |
| < 0.1 | Cc1ccc(Oc2cccc(C(=O)NCC(=O)N3C[C@H](OC(F)F)C[C@H]3C(=O)NCc3cc4c(s3)CCNC4)c2)c(F)c1 [Compound 338, (2S,4R)-4-(difluoromethoxy)-1-((3-(2-fluoro-4-methylphenoxy)benzoyl)glycyl)-N-((4,5,6,7-tetrahydrothieno[3,2-c]pyridin-2-yl)methyl) pyrrolidine-2-carboxamide] |
| < 0.1 | C[C@@H](NC(=O)[C@@H]1CC2(CCCC2)CN1C(=O)CNC(=O)c1ccc2c(c1)Oc1ccccc1S2)c1cc2cnccc2[nH]1 [Compound 131, (S)-N-((R)-1-(1H-pyrrolo[3,2-c]pyridin-2-yl)ethyl)-2-((phenoxathiine-3-carbonyl)glycyl)-2-azaspiro[4.4]nonane-3-carboxamide] |
| < 0.1 | C[C@@H](NC(=O)[C@@H]1C[C@@H](OC(F)F)CN1C(=O)CN1Cc2cc(-c3ccc(F)cc3Cl)ccc2C1=O)c1cc2cnccc2[nH]1 [Compound 124, (2S,4R)-N-((R)-1-(1H-pyrrolo[3,2-c]pyridin-2-yl)ethyl)-1-(2-(5-(2-chloro-4-fluorophenyl)-1-oxoisoindolin-2-yl)acetyl)-4-(difluoromethoxy)pyrrolidine-2-carboxamide] |
| < 0.1 | CCc1ccc(Oc2cc(F)cc(C(=O)NCC(=O)N3[C@H]4C[C@@]4(C)C[C@H]3C(=O)NCc3cc4cnccc4[nH]3)c2)cc1 [Compound 371, (1S,3S,5S)-N-((1H-pyrrolo[3,2-c]pyridin-2-yl)methyl)-2-((3-(4-ethylphenoxy)-5-fluorobenzoyl)glycyl)-5-methyl-2-azabicyclo[3.1.0]hexane-3-carboxamide] |
| > 1 | O=C(NCC(=O)N1C[C@H](OC(F)F)C[C@H]1C(=O)NCc1cnc2c(c1)NCC2)c1ccc2c(c1)Oc1ccccc1S2 [Compound 257, (2S,4R)-4-(difluoromethoxy)-N-((2,3-dihydro-1H-pyrrolo[3,2-b]pyridin-6-yl)methyl)-1-((phenoxathiine-3-carbonyl)glycyl)pyrrolidine-2-carboxamide] |
| 0.1 to 1 | O=C(NCc1cc2cnccc2[nH]1)[C@@H]1CC2(CN1C(=O)CN1Cc3cc(-c4ccc(F)cc4)ccc3C1=O)OCCO2 [Compound 121, (S)-N-((1H-pyrrolo[3,2-c]pyridin-2-yl)methyl)-7-(2-(5-(4-fluorophenyl)-1-oxoisoindolin-2-yl)acetyl)-1,4-dioxa-7-azaspiro[4.4]nonane-8-carboxamide] |
| > 1 | CN1CCc2cc(CNC(=O)[C@@H]3C[C@@H](OC(F)F)CN3C(=O)CNC(=O)c3ccc4c(c3)Oc3ccccc3S4)sc2C1 [Compound 346, (2S,4R)-4-(difluoromethoxy)-N-((6-methyl-4,5,6,7-tetrahydrothieno[2,3-c]pyridin-2-yl)methyl)-1-((phenoxathiine-3-carbonyl)glycyl) pyrrolidine-2-carboxamide] |
| < 0.1 | O=C(CCCOc1ccccc1)NCC(=O)N1CC2(C[C@H]1C(=O)NCc1cc3cnccc3[nH]1)OCCO2 [Compound 20, (S)-N-((1H-pyrrolo[3,2-c]pyridin-2-yl)methyl)-7-((4-phenoxybutanoyl)glycyl)-1,4-dioxa-7-azaspiro[4.4]nonane-8-carboxamide] |
| 0.1 to 1 | O=C(NCC(=O)N1C[C@H](OC(F)F)C[C@H]1C(=O)NCc1cnc2[nH]ccc2c1)c1ccc2c(c1)Oc1ccccc1S2 [Compound 247] |
| 0.1 to 1 | O=C(NCC(=O)N1CC2(C[C@H]1C(=O)NCc1cc3cnccc3[nH]1)OCCO2)c1ccc(-c2ccc(F)cc2F)cc1 [Compound 117, (S)-N-((1H-pyrrolo[3,2-c]pyridin-2-yl)methyl)-7-((2′,4′-difluoro-[1,1′-biphenyl]-4-carbonyl)glycyl)-1,4-dioxa-7-azaspiro[4.4]nonane-8-carboxamide] |
| < 0.1 | O=C(NCC(=O)N1CCC[C@H]1C(=O)NCc1cc2cnccc2[nH]1)c1ccc2c(c1)Oc1ccccc1S2 [Compound 188, (S)-N-((1H-pyrrolo[3,2-c]pyridin-2-yl)methyl)-1-((phenoxathiine-3-carbonyl)glycyl)pyrrolidine-2-carboxamide] |
